Reference: PubChem BioAssay (NCI)
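Step 1: Grow cells in 96-well plates. Step 2: Expose to compound for 48 hours at 5 concentrations. Step 3: Interpolate endpoints linearly; if unreached, use highest concentration. GI50 is the concentration that inhibits growth by half. TGI marks complete inhibition of growth.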

Experiments:
Test in all cases: NCI anticancer screen, dose series, 48 h
OVCAR-5 ovarian = tested on: OVCAR-5 ovarian
SNB-75 CNS = tested on: SNB-75 CNS
ACHN renal = tested on: ACHN renal
U251 CNS = tested on: U251 CNS
MDA-MB-231 breast = tested on: MDA-MB-231 breast
CCRF-CEM leukemia = tested on: CCRF-CEM leukemia
HOP-92 NSCLC = tested on: HOP-92 NSCLC
BT-549 breast = tested on: BT-549 breast
NCI-H23 lung = tested on: NCI-H23 lung
SNB-19 CNS = tested on: SNB-19 CNS
RPMI-8226 leukemia = tested on: RPMI-8226 leukemia
UACC-62 melanoma = tested on: UACC-62 melanoma
OVCAR-3 ovarian = tested on: OVCAR-3 ovarian
786-0 renal = tested on: 786-0 renal
SF-539 CNS = tested on: SF-539 CNS
PC-3 prostate = tested on: PC-3 prostate
OVCAR-8 ovarian = tested on: OVCAR-8 ovarian
NCI-H522 lung = tested on: NCI-H522 lung
A549 NSCLC = tested on: A549 NSCLC
HT29 colon = tested on: HT29 colon
A498 renal = tested on: A498 renal
HS 578T breast = tested on: HS 578T breast
HCT-15 colon = tested on: HCT-15 colon
M14 melanoma = tested on: M14 melanoma
EKVX NSCLC = tested on: EKVX NSCLC
UACC-257 melanoma = tested on: UACC-257 melanoma
RXF 393 renal = tested on: RXF 393 renal
OVCAR-4 ovarian = tested on: OVCAR-4 ovarian
HOP-62 NSCLC = tested on: HOP-62 NSCLC
SR leukemia = tested on: SR leukemia
COLO 205 colon = tested on: COLO 205 colon
UO-31 renal = tested on: UO-31 renal
CAKI-1 renal = tested on: CAKI-1 renal
SK-MEL-2 melanoma = tested on: SK-MEL-2 melanoma
SK-MEL-28 melanoma = tested on: SK-MEL-28 melanoma
NCI-H226 lung = tested on: NCI-H226 lung
HCT-116 colon = tested on: HCT-116 colon
IGROV1 ovarian = tested on: IGROV1 ovarian
KM12 colon = tested on: KM12 colon
LOX IMVI melanoma = tested on: LOX IMVI melanoma
K-562 leukemia = tested on: K-562 leukemia
MALME-3M melanoma = tested on: MALME-3M melanoma
NCI/ADR-RES ovarian = tested on: NCI/ADR-RES ovarian
DU-145 prostate = tested on: DU-145 prostate
SW-620 colon = tested on: SW-620 colon
SF-295 CNS = tested on: SF-295 CNS
MDA-MB-435 = tested on: MDA-MB-435
SN12C renal = tested on: SN12C renal
SK-OV-3 ovarian = tested on: SK-OV-3 ovarian
T-47D breast = tested on: T-47D breast
HL-60(TB) leukemia = tested on: HL-60(TB) leukemia
HCC-2998 colon = tested on: HCC-2998 colon
SF-268 CNS = tested on: SF-268 CNS
TK-10 renal = tested on: TK-10 renal
MCF7 breast = tested on: MCF7 breast
NCI-H460 lung = tested on: NCI-H460 lung
SK-MEL-5 melanoma = tested on: SK-MEL-5 melanoma
MOLT-4 leukemia = tested on: MOLT-4 leukemia

`O=[N+]([O-])c1ccc2c(c1)C(=NO)c1cc([N+](=O)[O-])ccc1-2` was tested, and the GI50 (OVCAR-5 ovarian) was greater than 100 µM, the TGI (OVCAR-5 ovarian) was greater than 100 µM and the GI50 (SNB-75 CNS) was 7.18 µM. It also gave a TGI (SNB-75 CNS) of 75.8 µM, a GI50 (ACHN renal) of 4.98 µM and a TGI (ACHN renal) of 39.7 µM. It also gave a GI50 (U251 CNS) of 10.7 µM, a TGI (U251 CNS) greater than 100 µM and a GI50 (MDA-MB-231 breast) of 36.3 µM. The TGI (MDA-MB-231 breast) was greater than 100 µM, the GI50 (CCRF-CEM leukemia) was 13.6 µM and the TGI (CCRF-CEM leukemia) was greater than 100 µM. The GI50 (HOP-92 NSCLC) was 53.7 µM, the TGI (HOP-92 NSCLC) was greater than 100 µM and the GI50 (BT-549 breast) was 50.8 µM. The TGI (BT-549 breast) was greater than 100 µM, the GI50 (NCI-H23 lung) was 25.3 µM and the TGI (NCI-H23 lung) was greater than 100 µM. The GI50 (SNB-19 CNS) was greater than 100 µM, the TGI (SNB-19 CNS) was greater than 100 µM and the GI50 (RPMI-8226 leukemia) was 29.4 µM. The TGI (RPMI-8226 leukemia) was greater than 100 µM, the GI50 (UACC-62 melanoma) was 11.5 µM and the TGI (UACC-62 melanoma) was greater than 100 µM. For the same compound, the GI50 (OVCAR-3 ovarian) was 68.4 µM, the TGI (OVCAR-3 ovarian) was greater than 100 µM and the GI50 (786-0 renal) was 10.8 µM. It also gave a TGI (786-0 renal) greater than 100 µM, a GI50 (SF-539 CNS) of 37.7 µM and a TGI (SF-539 CNS) greater than 100 µM. The GI50 (PC-3 prostate) was 24.2 µM, the TGI (PC-3 prostate) was greater than 100 µM and the GI50 (OVCAR-8 ovarian) was 74.7 µM. It also gave a TGI (OVCAR-8 ovarian) greater than 100 µM, a GI50 (NCI-H522 lung) of 1.62 µM and a TGI (NCI-H522 lung) of 11 µM. The GI50 (A549 NSCLC) was 7.23 µM, the TGI (A549 NSCLC) was greater than 100 µM and the GI50 (HT29 colon) was 19.5 µM. For the same compound, the TGI (HT29 colon) was greater than 100 µM, the GI50 (A498 renal) was 54 µM and the TGI (A498 renal) was greater than 100 µM. It also gave a GI50 (HS 578T breast) greater than 100 µM, a TGI (HS 578T breast) greater than 100 µM and a GI50 (HCT-15 colon) of 8.92 µM. It also gave a TGI (HCT-15 colon) greater than 100 µM, a GI50 (M14 melanoma) of 21.5 µM and a TGI (M14 melanoma) greater than 100 µM. For the same compound, the GI50 (EKVX NSCLC) was 12.9 µM, the TGI (EKVX NSCLC) was greater than 100 µM and the GI50 (UACC-257 melanoma) was 62.6 µM. For the same compound, the TGI (UACC-257 melanoma) was greater than 100 µM, the GI50 (RXF 393 renal) was greater than 100 µM and the TGI (RXF 393 renal) was greater than 100 µM. The GI50 (OVCAR-4 ovarian) was 12.7 µM, the TGI (OVCAR-4 ovarian) was greater than 100 µM and the GI50 (HOP-62 NSCLC) was 46.5 µM. It also gave a TGI (HOP-62 NSCLC) greater than 100 µM, a GI50 (SR leukemia) of 2.88 µM and a TGI (SR leukemia) of 9.86 µM. It also gave a GI50 (COLO 205 colon) of 39.5 µM, a TGI (COLO 205 colon) greater than 100 µM and a GI50 (UO-31 renal) of 3.12 µM. The TGI (UO-31 renal) was 23.5 µM, the GI50 (CAKI-1 renal) was 6.46 µM and the TGI (CAKI-1 renal) was greater than 100 µM. It also gave a GI50 (SK-MEL-2 melanoma) greater than 100 µM, a TGI (SK-MEL-2 melanoma) greater than 100 µM and a GI50 (SK-MEL-28 melanoma) of 43.4 µM. For the same compound, the TGI (SK-MEL-28 melanoma) was greater than 100 µM, the GI50 (NCI-H226 lung) was 10.9 µM and the TGI (NCI-H226 lung) was 29.1 µM. The GI50 (HCT-116 colon) was 6.71 µM, the TGI (HCT-116 colon) was greater than 100 µM and the GI50 (IGROV1 ovarian) was 2.52 µM. The TGI (IGROV1 ovarian) was 7.6 µM, the GI50 (KM12 colon) was 18.6 µM and the TGI (KM12 colon) was greater than 100 µM. For the same compound, the GI50 (LOX IMVI melanoma) was 13.8 µM, the TGI (LOX IMVI melanoma) was greater than 100 µM and the GI50 (K-562 leukemia) was 11.7 µM. The TGI (K-562 leukemia) was greater than 100 µM, the GI50 (MALME-3M melanoma) was 11.7 µM and the TGI (MALME-3M melanoma) was greater than 100 µM. The GI50 (NCI/ADR-RES ovarian) was 16.3 µM, the TGI (NCI/ADR-RES ovarian) was greater than 100 µM and the GI50 (DU-145 prostate) was 55.1 µM. It also gave a TGI (DU-145 prostate) greater than 100 µM, a GI50 (SW-620 colon) of 12.4 µM and a TGI (SW-620 colon) greater than 100 µM. For the same compound, the GI50 (SF-295 CNS) was 13.5 µM, the TGI (SF-295 CNS) was greater than 100 µM and the GI50 (MDA-MB-435) was 22.5 µM. The TGI (MDA-MB-435) was greater than 100 µM, the GI50 (SN12C renal) was 20.5 µM and the TGI (SN12C renal) was greater than 100 µM. For the same compound, the GI50 (SK-OV-3 ovarian) was greater than 100 µM, the TGI (SK-OV-3 ovarian) was greater than 100 µM and the GI50 (T-47D breast) was 79 µM. For the same compound, the TGI (T-47D breast) was greater than 100 µM, the GI50 (HL-60(TB) leukemia) was 4.19 µM and the TGI (HL-60(TB) leukemia) was 22.9 µM. For the same compound, the GI50 (HCC-2998 colon) was 37.1 µM, the TGI (HCC-2998 colon) was greater than 100 µM and the GI50 (SF-268 CNS) was 33.6 µM. For the same compound, the TGI (SF-268 CNS) was greater than 100 µM, the GI50 (TK-10 renal) was 12.6 µM and the TGI (TK-10 renal) was greater than 100 µM. It also gave a GI50 (MCF7 breast) of 4.92 µM, a TGI (MCF7 breast) greater than 100 µM and a GI50 (NCI-H460 lung) of 4.82 µM. It also gave a TGI (NCI-H460 lung) greater than 100 µM, a GI50 (SK-MEL-5 melanoma) of 12.1 µM and a TGI (SK-MEL-5 melanoma) of 34 µM. The GI50 (MOLT-4 leukemia) was 3.25 µM and the TGI (MOLT-4 leukemia) was 7.61 µM.
